Assay results published in ChEMBL document CHEMBL4354827, “Discovery of Novel, Potent, Brain-Permeable, and Orally Efficacious Positive Allosteric Modulator of α7 Nicotinic Acetylcholine Receptor [4-(5-(4-Chlorophenyl)-4-methyl-2-propionylthiophen-3-yl)benzenesulfonamide]: Structure-Activity Relationship and Preclinical Characterization” (J Med Chem, 2020).

Key:
[1] = biological target: Neuronal acetylcholine receptor subunit alpha-7 (Homo sapiens, UniProt P36544); test: Positive allosteric modulatory activity against alpha7 nAChR in human IMR-32 cells assessed as potentiation of PNU-282987-induced Ca2+ […] at 1 uM by FLIPR assay relative to control; format: cell-based
[2] = Metabolic stability in human pooled liver microsomes assessed as compound remaining at 1 uM preincubated for 5 mins followed by NADPH addition and measured after 30 mins by LC-MS/MS analysis; format: ADME, Microsome; conditions: read-out: Stability
[3] = AUC (0 to 144 hrs) in Wistar rat at 1 mg/kg, iv after 0.083 to 144 hrs by LC-MS/MS analysis; format: ADME, organism-based; set-up: time < 144 hr, dose 1 mg/kg, route intravenous; conditions: in vivo
[4] = AUClast in BALB/c mouse at 1 mg/kg, iv after 0.083 to 144 hrs by LC-MS/MS analysis; format: ADME, organism-based; set-up: dose 1 mg/kg, time upper 144 hr, time lower 0.083 hr, route intravenous; conditions: in vivo
[5] = Cmax in Beagle dog at 10 mg/kg, po after 0.25 to 144 hrs by LC-MS/MS analysis; format: ADME, organism-based, Canis lupus familiaris; set-up: dose 10 mg/kg, route oral; conditions: in vivo
[6] = Cmax in BALB/c mouse at 1 mg/kg, iv after 0.083 to 144 hrs by LC-MS/MS analysis; format: ADME, organism-based; set-up: dose 1 mg/kg, route intravenous; conditions: in vivo
[7] = Tmax in Beagle dog at 10 mg/kg, po after 0.25 to 144 hrs by LC-MS/MS analysis; format: ADME, organism-based, Canis lupus familiaris; conditions: in vivo
[8] = Tmax in BALB/c mouse at 10 mg/kg, po after 0.25 to 144 hrs by LC-MS/MS analysis; format: ADME, organism-based; conditions: in vivo
[9] = Half life in Wistar rat at 10 mg/kg, po after 0.25 to 144 hrs by LC-MS/MS analysis; format: ADME, organism-based; conditions: in vivo
[10] = Clearance in BALB/c mouse at 1 mg/kg, iv after 0.083 to 144 hrs by LC-MS/MS analysis; format: ADME, organism-based; conditions: in vivo
[11] = Drug concentration in Wistar rat plasma at 10 mg/kg, po after 8 hrs by LC-MS/MS analysis; format: ADME, organism-based
[12] = Unbound brain-to-plasma concentration ratio in Wistar rat at 10 mg/kg, po after 8 hrs by LC-MS/MS analysis; format: ADME, organism-based; conditions: read-out: K(p,uu,brain)
[13] = Unbound brain-to-plasma concentration ratio in Wistar rat at 10 mg/kg, po after 24 hrs by LC-MS/MS analysis; format: ADME, organism-based; conditions: read-out: K(p,uu,brain)
[14] = Cmax in Wistar rat plasma at 10 mg/kg, po after 1 to 144 hrs by LC-MS/MS analysis; format: ADME, organism-based; set-up: dose 10 mg/kg, route oral
[15] = Tmax in Wistar rat brain at 10 mg/kg, po after 1 to 144 hrs by LC-MS/MS analysis; format: ADME, organism-based
Cytochrome P450 2E1 = Cytochrome P450 2E1 (Homo sapiens, UniProt P05181); test: Inhibition of CYP2E1 (unknown origin) up to 10 uM; format: ADME
Rattus norvegicus [16] = test: Memory enhancement effect in scopolamine-induced Wistar rat model of amnesia assessed as exploration time for familiar object in retention trial at 0.15 mg/kg, po administered as single dose and measured on day 9 by novel object recognition test (reference value: 8.59 sec); format: functional
Rattus norvegicus [17] = test: Memory enhancement effect in scopolamine-induced Wistar rat model of amnesia assessed as exploration time for familiar object in retention trial at 0.5 mg/kg, po administered as single dose and measured on day 9 by novel object recognition test (reference value: 8.59 sec); format: functional
Rattus norvegicus [18] = test: Memory enhancement effect in time-delay induced Wistar rat model of amnesia assessed as exploration time for object1 at 3 mg/kg, po administered as single dose after acquisition trial by novel object recognition test (reference value: 19.09 sec); format: functional
Rattus norvegicus [19] = test: Memory enhancement effect in time-delay induced Wistar rat model of amnesia assessed as increase in novel object discrimination at 1 mg/kg, po administered as single dose after acquisition trial by novel object recognition test (reference value: 0.08); format: functional
Rattus norvegicus [20] = test: Memory enhancement effect in time-delay induced Wistar rat model of amnesia assessed as exploration time for novel object in retention trial at 0.05 mg/kg, po for 7 days and measured on day 8 by novel object recognition test (reference value: 15.37 sec); format: functional
Rattus norvegicus [21] = test: Memory enhancement effect in time-delay induced Wistar rat model of amnesia assessed as exploration time for object2 in acquisition trial at 0.5 mg/kg, po for 7 days and measured on day 8 by novel object recognition test (reference value: 11.76 sec); format: functional
Rattus norvegicus [22] = test: Memory enhancement effect in time-delay induced Wistar rat model of amnesia assessed as increase in discrimination index at 0.05 mg/kg, po for 7 days and measured on day 8 by novel object recognition test (reference value: 0.12); format: functional
[23] = Drug level in Wistar rat plasma at 0.05 mg/kg, po; format: ADME, organism-based; conditions: in vivo
Rattus norvegicus [24] = test: Memory enhancement effect in scopolamine-induced Wistar rat model of amnesia assessed as exploration time for object1 in acquisition trial at 0.05 mg/kg, po for 7 days and measured on day 8 by novel object recognition test (reference value: 16.11 sec); format: functional
Rattus norvegicus [25] = test: Memory enhancement effect in scopolamine-induced Wistar rat model of amnesia assessed as exploration time for object1 in acquisition trial at 0.15 mg/kg, po for 7 days and measured on day 8 by novel object recognition test (reference value: 16.11 sec); format: functional
Rattus norvegicus [26] = test: Improvement in social recognition time delay-induced Sprague-Dawley rat model of amnesia assessed as increase in reduction in social investigation time at 1 mg/kg, po administered as single dose prior to 1 hr training and measured after 30 mins (reference value: 0.39%); format: functional; set-up: scale not given: the % may be the effect or the level left
Rattus norvegicus [27] = test: Improvement in social recognition scopolamine-induced Sprague-Dawley rat model of amnesia assessed as reduction in recognition index 3 mg/kg, po administered as single dose prior to 1 hr training and measured after 30 mins (reference value: 0.9); format: functional
Rattus norvegicus [28] = test: Improvement in social recognition time delay-induced Sprague-Dawley rat model of amnesia assessed as increase in reduction in social investigation time at 0.15 mg/kg, po for 7 days and measured on day 9 (reference value: -0.5%); format: functional; set-up: scale not given: the % may be the effect or the level left
[29] = Drug level in Sprague-Dawley rat plasma at 0.05 mg/kg, po for 7 days; format: ADME, organism-based
Rattus norvegicus [30] = test: Improvement in social recognition scopolamine-induced Sprague-Dawley rat model of amnesia assessed as increase in reduction in social investigation time at 0.15 mg/kg, po for 7 days measured after 24 hrs (Rvb =6.59%); format: functional; set-up: scale not given: the % may be the effect or the level left
Rattus norvegicus [31] = test: Improvement in social recognition scopolamine-induced Sprague-Dawley rat model of amnesia assessed as increase in reduction in social investigation time at 0.05 mg/kg, po for 7 days measured after 24 hrs (Rvb =6.59%); format: functional; set-up: scale not given: the % may be the effect or the level left
[32] = Drug level in scopolamine-induced Sprague-Dawley rat plasma at 0.05 mg/kg, po for 7 days; format: ADME, organism-based
[33] = Drug level in scopolamine-induced Sprague-Dawley rat plasma at 0.15 mg/kg, po for 7 days; format: ADME, organism-based
[34] = Drug level in scopolamine-induced Sprague-Dawley rat brain at 0.15 mg/kg, po for 7 days; format: ADME, organism-based; conditions: read-out: Drug uptake
[35] = Drug level in scopolamine-induced Sprague-Dawley rat brain at 0.5 mg/kg, po for 7 days; format: ADME, organism-based; conditions: read-out: Drug uptake

Chain of Neuronal acetylcholine receptor subunit alpha-7 (P36544 whole entry): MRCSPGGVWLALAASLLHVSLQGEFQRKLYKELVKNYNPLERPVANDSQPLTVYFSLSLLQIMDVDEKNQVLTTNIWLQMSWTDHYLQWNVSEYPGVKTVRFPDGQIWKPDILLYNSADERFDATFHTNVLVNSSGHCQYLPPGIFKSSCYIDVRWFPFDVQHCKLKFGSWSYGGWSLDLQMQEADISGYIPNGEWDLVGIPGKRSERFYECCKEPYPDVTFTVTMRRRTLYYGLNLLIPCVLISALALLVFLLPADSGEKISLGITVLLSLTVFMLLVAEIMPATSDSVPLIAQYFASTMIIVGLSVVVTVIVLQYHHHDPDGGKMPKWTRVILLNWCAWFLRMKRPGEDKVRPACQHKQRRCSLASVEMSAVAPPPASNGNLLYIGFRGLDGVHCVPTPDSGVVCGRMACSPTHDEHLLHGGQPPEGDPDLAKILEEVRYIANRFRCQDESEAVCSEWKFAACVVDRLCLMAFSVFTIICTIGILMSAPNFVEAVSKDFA
Chain of Cytochrome P450 2E1 (P05181 whole entry): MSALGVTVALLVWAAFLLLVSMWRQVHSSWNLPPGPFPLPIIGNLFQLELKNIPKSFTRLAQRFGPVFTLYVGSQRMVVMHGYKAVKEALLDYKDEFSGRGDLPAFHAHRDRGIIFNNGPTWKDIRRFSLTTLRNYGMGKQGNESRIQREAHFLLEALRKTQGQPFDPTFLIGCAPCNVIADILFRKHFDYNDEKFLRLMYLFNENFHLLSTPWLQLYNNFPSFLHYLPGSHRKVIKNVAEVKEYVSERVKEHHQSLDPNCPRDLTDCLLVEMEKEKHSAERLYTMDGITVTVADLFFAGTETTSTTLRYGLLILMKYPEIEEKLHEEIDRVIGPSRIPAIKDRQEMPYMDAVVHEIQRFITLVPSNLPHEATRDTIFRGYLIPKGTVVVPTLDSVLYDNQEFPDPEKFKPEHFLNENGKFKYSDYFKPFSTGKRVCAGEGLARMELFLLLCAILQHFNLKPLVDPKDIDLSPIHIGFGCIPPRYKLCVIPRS

SMILES: CCC(=O)c1sc(-c2ccc(Cl)cc2)c(C)c1-c1ccc(S(N)(=O)=O)cc1
- fold change (FC) [1]: 22
- remaining at 0.5 h, 1 µM [2]: 90%
- AUC(0-t) at 144 h [3]: 27 µM·h
- AUC(0-t) [4]: 11 µM·h
- Cmax [5]: 5000 nM
- Cmax [6]: 900 nM
- Tmax [7]: 1.5 h
- Tmax [8]: 4 h
- half-life [9]: 45 h
- clearance [10]: 3.6 mL/min/kg
- concentration at 8 h [11]: 830 nM
- Kp uu at 8 h [12]: 0.93
- Kp uu at 24 h [13]: 1.07
- Cmax [14]: 900 nM
- Tmax [15]: 4 h
- inhibition (INH) (Cytochrome P450 2E1): Not Active
- Time (Rattus norvegicus [16]): 4.86 s
- Time (Rattus norvegicus [17]): 6.63 s
- Time (Rattus norvegicus [18]): 17.81 s
- Activity_index (Rattus norvegicus [19]): 0.38
- Time (Rattus norvegicus [20]): 13.91 s
- Time (Rattus norvegicus [21]): 12.42 s
- Activity_index (Rattus norvegicus [22]): 0.27
- concentration [23]: 40 nM
- Time (Rattus norvegicus [24]): 16.07 s
- Time (Rattus norvegicus [25]): 14.08 s
- Activity (Rattus norvegicus [26]): 31.73%
- Activity_index (Rattus norvegicus [27]): 0.45
- Activity (Rattus norvegicus [28]): 43.63%
- concentration at 168 h [29]: 130 nM
- Activity (Rattus norvegicus [30]): 55.83%
- Activity (Rattus norvegicus [31]): 44.4%
- concentration at 168 h [32]: 60 nM
- concentration at 168 h [33]: 180 nM
- concentration at 168 h [34]: 530 nM
- concentration at 168 h [35]: 2130 nM
